Among the data in a melting point compilation (Tetko et al.; mined from patent text by program, amines drawn as free bases though some values may be those of a salt) are melting point values, retold here.

As to `CCN(CC)CCC(=O)O`, the melting point is 65 to 67 °C. Then `COc1ccc(C(=O)Nc2ccc3ccc(Oc4ccc(F)cc4)nc3n2)cc1`, with 100 °C; and `CC(=O)NC[C@H]1CN(c2ccc(N3CCN(C(=O)CCC(=O)c4ccc(CN(C)C)cc4)CC3)c(F)c2)C(=O)O1`, with 190 to 192 °C; and `Cc1cc(NC(=O)c2cnoc2C2CC2)ccc1Br`, with 133 to 135 °C. Molecule `O=C(NCCCCN1CCC(c2ccccc2)CC1)c1ccc2ccccc2c1` had a melting point of 143 to 144 °C.

As for `N=C(NO)C1=Cc2cc(O)c(O)cc2CC1`, the melting point lay in the range of 183 to 185 °C. The same measure for `Cc1c(C)c2c(c(C)c1O)C(=O)CC(CCC(C)CCCC(C)C)(COc1ccc([N+](=O)[O-])cc1)O2` (configuration not stated): 121 to 123 °C; for `COC(=O)C1CCN(c2ccc3nc4[nH]c(=O)[nH]c4cc3c2)CC1`: over 310 °C; for `Cc1cn(C)cc1C(=O)O`: 166 to 168 °C. `CC(C)(C)OC(=O)N1CCN(C(=O)C(F)(F)F)CC1` returned a melting point of 66 to 68 °C. Molecule `COc1cc(C=NNC2=NCCc3ccccc32)cc(OC)c1O` gave a melting point of 232 to 233 °C. With `O=C(NN=Cc1c(O)ccc2ccccc12)c1cc2ccccc2cc1O`, the melting point is over 300 °C. Consider `CC(C)Sc1ccc(NC(=O)C2(C)CC2)cc1C(F)(F)F`, for which the melting point was 103 to 105 °C. The same measure for `CC(C)c1nc2cc(COc3ccc(C=C4SC(=O)NC4=O)cc3)ccc2o1`: 219 to 221 °C.

With `COC(=O)c1nc(-c2ccc(Cl)c(OC)c2F)cc(N)c1C`, the melting point fell in the range of 122 to 125 °C. Regarding `O=C(O)c1cc(S(=O)(=O)Cl)cc(S(=O)(=O)Cl)c1O`, the melting point lay within 185 to 187 °C. `CCOC(=O)C(C(=O)OCC)C(CC#N)c1ccc(CC)cc1` (configuration not stated): the melting point lay within 157 to 159 °C.

In turn, `O=C(CSc1ccc(C(F)(F)F)cc1C(=O)O)c1ccccc1` gave a melting point of 128 to 130 °C. `CCOc1cccc(F)c1C1OC(=O)NC1=O` (configuration not stated) returned a melting point of 127 to 128 °C.

Take `COc1ccc2cc(Br)sc2c1`: the melting point stood at 62 °C.

On to `CCN(CC)C1=NN(Nc2ccc3nc(C)cc(N)c3c2)NC(Cl)=C1`, for which the melting point is 120 °C.

`CC(=O)C(=[N+]=[N-])C(=O)CCc1ccc(S(N)(=O)=O)cc1` displayed a melting point of 110 to 112 °C. `Oc1cc2c3ccc(O)c(O)c3n(Cc3c(Cl)cccc3Cl)c2cc1O` had a melting point of 263 to 265 °C. For the molecule `CCn1ncc(N=O)c1N`, the melting point fell in the range of 135 to 136 °C. The same measure for `CCCCCc1c(C(C)C)nc(C(C)C)c(CO)c1-c1ccc(C(C)C)cc1`: 42 to 44 °C; for `O=C(Cc1cc(F)cc(F)c1)N[C@@H](Cc1cc2ccccc2[nH]1)C(=O)N[C@@H]1C(=O)Nc2ccccc2S[C@@H]1c1ccccc1`: 85 to 90 °C. Then `O=C(O)CCCCCSc1ccc(-c2ccc(Cl)cc2)cc1`, with 156 to 157 °C; and `CCCCCNc1ncnc2c(C(C)C)n[nH]c12`, with 73 to 75 °C.

As for `CN1C(=O)NC(Cc2c[nH]c3ccccc23)C1=O` (configuration not stated), the melting point was in the range of 207 to 210 °C.

In turn, `OCC1=C(c2cccc3sccc23)N2CCN=C2S1` gave a melting point of 145 to 149 °C. Then `O=[N+]([O-])C(=Cc1ccco1)C1=NCCN1Cc1ccc(Cl)nc1`, with 157 to 162 °C; and `COc1cc(Nc2nccc(-c3cccc(NC(=O)c4cccnc4)c3)n2)cc(OC)c1OC`, with 140 to 143 °C; and `CCCCCCCN1CCN(C(=O)C2CCC(c3cccnc3)N2)CC1` (configuration not stated), with 138 to 143 °C. The same measure for `CCCCNC(=S)Nc1cccc(-c2ccnc3c(C(=O)c4cccs4)cnn23)c1`: 155 to 157 °C; for `COc1nc(C)cnc1NS(=O)(=O)c1cccnc1-c1ccc(N2CCOCC2)cc1`: 197 to 198 °C; for `N#Cc1ccc(Nc2nc(Oc3c(Br)cc(C=O)cc3Br)ccc2[N+](=O)[O-])cc1`: 218 to 220 °C. Then `CN(C)CC=C(c1ccc(-c2ccccc2)cc1)c1ccc(-c2ccccc2)cc1`, with 94 to 95 °C; and `O=C(c1ccccc1)N1C=CC(c2c(-c3ccc(F)cc3)nc3n2CCS3)C=C1`, with 188 to 189 °C; and `O=C(OCc1ccc(F)cc1)c1cccc(C(=O)OCc2ccc(F)cc2)c1`, with 78 to 79 °C. Take `O=C(O)c1ccc2c(c1)Sc1ccccc1CC2`: the melting point was 196 to 198 °C. Then `CCOC(=O)C(=O)NNc1ccc(NC(=S)NC)cc1`, with 168 to 169 °C; and `CCCCCC1=C(/C=C/C(=O)O)Cc2cc(OC)ccc21`, with 165 to 166 °C; and `CCN(c1cc(S(C)(=O)=O)ccc1C(=O)O)S(C)(=O)=O`, with 199 to 200 °C. On to `CCOC(=O)Cc1n[nH]c(=O)c2c(C)cccc12`, for which the melting point was 197 to 199 °C.

The molecule `COc1ccccc1N1CCN(CC2(C)N=C(c3ccccc3)NC2=O)CC1` (configuration not stated) returned a melting point of 86 to 89 °C. The same measure for `CCCN1CC(OCC2CC2)(C(F)(F)F)c2cc(Cl)ccc2NC1=O` (configuration not stated): 156 to 158 °C; for `COc1cc2ncnc(N3CCc4cc(C)ccc43)c2cc1OC`: 180 to 181 °C.

Molecule `Brc1ccc(Cc2cc3ccccc3[nH]2)cc1` displayed a melting point of 136 °C. For the molecule `CCCCCCCCCCOc1cccc(Nc2nnc(Cc3ccncc3)c3ccccc23)c1`, the melting point lay within 116 to 119 °C. The molecule `CCC=C1SC(=O)N(CCCCOc2cccn3ccnc23)C1=O` registered a melting point of 70 to 71 °C. Consider `CCOC(=O)c1ccc(CN2C(=O)c3ccccc3C2=O)o1`, for which the melting point is 108 to 109 °C.

On to `O=C1NC(=O)C(=Cc2ccc3c(c2)CCC(Cc2ccccc2)N3Cc2ccccc2)S1` (configuration not stated), for which the melting point was in the range of 199 to 201 °C. Then `C=C1CN(S(=O)(=O)c2ccc(C)cc2)CCCN(Cc2ccccc2)CCCN(S(=O)(=O)c2ccc(C)cc2)C1`, with 156 to 158 °C; and `CC(=NNc1c(Cl)cc(C(F)(F)F)cc1Cl)C(=NO)C(=O)Nc1ccccc1`, with 185 to 186 °C; and `Nc1ccc(-n2cc(C(=O)O)c(=O)cc2-c2ccc3ccccc3c2)cc1`, with 148 to 151 °C. Then `CC(=O)N[C@H]1CC[C@H](CCN2CCN(c3nc(C)cc4occc34)CC2)CC1`, with 208 °C; and `CC12CCC(C1)C1(C)Oc3ccc(C(=O)COc4ccc(C(=O)O)cc4)cc3C21C` (configuration not stated), with 188 °C; and `COc1ccc(S(=O)(=O)N(Cc2ccccc2)C(C(=O)NO)C(O)C(C)C)cc1` (configuration not stated), with 81 to 82 °C.

Molecule `CC(C(=O)OC(C)(C)C)c1ccc(N2Cc3ccc(Cl)cc3C2=O)cc1` (configuration not stated) registered a melting point of 169 to 171 °C. `O=C(O)CCCc1cccc(OCc2ccccc2)c1` had a melting point of 100 to 102 °C. `CCN1CCNC(=O)c2ccc(Nc3ncc(Cl)c(Nc4ccccc4OCCN4CCOCC4)n3)cc21` yielded a melting point of 223 to 225 °C. `COc1cccc2c3c([nH]c12)CCNC3=O` registered a melting point of 255 to 258 °C.

`CC(CC(C)(C)c1ccccc1)N=C(O)C(Cl)=C(Cl)C(=O)O` (configuration not stated): the melting point was 106 to 109 °C. `CS(=O)(=O)c1ccc(-n2cc(CC(=O)O)nc2-c2ccc(Cl)cc2)cc1` showed a melting point of 263 to 264 °C. In turn, `CN(C)c1ccc(C(=O)N2CCN(CCc3ccc(Cl)cc3)CC2)cc1` came in with a melting point of 133 to 134 °C. `C[C@H](O)[C@H](CO)N(Cc1ccc(C#N)cc1)S(=O)(=O)c1ccc(Cl)cc1` gave a melting point of 124 to 126 °C. The same measure for `COc1ccc(C=C2C=CC(=O)O2)cc1`: 118 to 120 °C; for `Cc1cccc(NC(=O)NCC(=O)N(CC(=O)N(CC(=O)OC(C)(C)C)c2ccccc2)c2ccccc2)c1`: 76 to 80 °C. Then `Cc1cc2c(c(Sc3ccc(Cl)cc3)n1)C(=O)N(CC1Cc3c(sc(N)c3C(=O)OC(C)(C)C)CO1)C2=O` (configuration not stated), with 118 to 119 °C; and `O=C(Nc1ccc(C(CC2CCCC2)C(=O)Nc2ccccn2)cc1)c1cccnc1` (configuration not stated), with 160 to 163 °C; and `O=C(O)[C@H]1O[C@@H]1C1CCCCC1`, with 64 to 65 °C. Molecule `Nc1nc(Nc2ccc(S(N)(=O)=O)cc2)sc1C(=O)c1ccc(C(=O)O)cc1` showed a melting point of 298 to 300 °C. Then `Cn1cccc1C(=O)NN(C(=O)c1ccccc1)C(C)(C)C`, with 182 to 185 °C; and `Oc1ccccc1[C@@H]1C[C@H]2C=C(c3c[nH]c(-c4ccc(F)cc4)c3-c3ccncc3)CCN2C1`, with 195 to 196 °C; and `O=C(O)c1ccc(-c2ccc(NS(=O)(=O)c3cccnc3)cc2)[nH]c1=O`, with over 260 °C. The same measure for `CCCSc1cn(C)cc(-c2cccc(C(F)(F)F)c2)c1=O`: 101 to 102 °C; for `CN(CCCc1nc2ccccc2[nH]1)C(=O)OCc1ccccc1`: 83 to 86 °C; for `CCOC(=O)c1c(O)c2c(C)csc2n(Cc2ccccc2)c1=O`: 166 °C. Molecule `COc1ccccc1N1CCN(CCNC(=O)c2cccc(OC)c2OC)CC1` had a melting point of 133 to 134 °C.

The molecule `CCCCS(=O)(=O)NC(=O)C[C@H]1O[C@H](c2cccc(OC)c2OC)c2cc(Cl)ccc2N(CC(C)(C)CO)C1=O` registered a melting point of 123 to 125 °C. Then `CC(=O)O[C@H]1[C@H](OC(C)=O)CSC(Oc2ccc3c(ccn3C(=O)OC(C)(C)C)c2)[C@@H]1OC(C)=O` (some centres not stated), with 58 to 62 °C; and `COc1ccc(C(=O)NCCCCCCCNC(=O)c2ccc(OC)c(Cl)c2)cc1Cl`, with 132 to 133 °C; and `COC(=O)c1cc(-c2ccc(-c3ccccc3)cc2)nn(CC(C)C)c1=O`, with 186 to 195 °C. The same measure for `CC1NC(=O)NN=C1c1ccc(S(N)(=O)=O)cc1` (configuration not stated): 259 to 264 °C; for `O=Cc1cnc2n1CCc1ccccc1C2=C1CCN(C2CCN(C(=O)c3cc(C(F)(F)F)cc(C(F)(F)F)c3)C(Cc3ccccc3)C2)CC1` (configuration not stated): 126 °C. The same measure for `COc1ccc(S(=O)(=O)C(C)(Cc2ccc3ccccc3c2)C(=O)NO)cc1` (configuration not stated): 185 to 187 °C. The molecule `Fc1ccccc1-c1nc(Cl)nc2ccccc12` gave a melting point of 141 °C.

The term melting point denotes the temperature of the solid-liquid transition.
